Each block holds one compound with its values, some of them ahead of it.
Tests used:
[1] = tested on: DU145 prostate cancer; test: MTS cell viability assay, DU145 prostate cancer cell line; format: cell-based; conditions: 48 h; for Viability (% CTL) at 10 μM DU145 prostate: Table 2; for IC50: Homo sapiens, DU-145, DU145 prostate cancer, MTS; for Viability % CTL DU145 prostate: Table 1, screened at 10 μM; for Viability % CTL DU145 prostate (10 μM ): Table 4
Experimental: (§1) MTS assays were performed for cell viability. To determine if novel pyridopyrazine derivatives have antitumor activities, compounds were screened at 10 μM final concentration with A2058 melanoma and DU145 prostate cancer cell lines. Compounds #16 and #17 were selected to determine IC50 values against lung cancer cell lines, including A549, DMS273, H69, H513, H2461, DMS114, H358 and H2596. In this assay, cells (5000/well) were seeded in 96-well plates, incubated overnight at 37° C. in 5% CO2, and exposed to 10 μM of compounds or in a dose-dependent manner for 48 h. After 48 h treatment with compounds, MTS dye (20 μL/well) was added to 96-well plates. Viable cell numbers were determined by tetrazolium conversion to its formazan dye. Absorbance was measured at 490 nm using an automated ELISA plate reader. Dimethyl sulfoxide (DMSO) was used as the vehicle control. Each experiment was conducted in triplicate. IC50 values were determined using CalcuSyn software (Biosoft).

[2] = tested on: A2058 melanoma; test: MTS cell viability assay, A2058 melanoma cell line; format: cell-based; conditions: 48 h; for Viability (% CTL) at 10 μM A2058 melanoma: Table 2, 10 μM; for IC50: Homo sapiens, MTS; for Viability % CTL A2058 melanoma: Table 1, screened at 10 μM; for Viability % CTL A2058 melanoma (10 μM): Table 4, 10 μM
Experimental: as §1

[3] = tested on: DMS273 small cell lung cancer; test: MTS cell viability assay, DMS273 lung cancer cell line; format: cell-based; conditions: Homo sapiens, DMS-273, 48 h
Experimental: as §1

[4] = tested on: H513 NSCLC; test: MTS cell viability assay, H513 lung cancer cell line; format: cell-based; conditions: 48 h
Experimental: as §1

[5] = tested on: A549 NSCLC; test: MTS cell viability assay, A549 lung cancer cell line; format: cell-based; conditions: Homo sapiens, 48 h
Experimental: as §1

[6] = tested on: DMS114 small cell lung cancer; test: MTS cell viability assay, DMS114 lung cancer cell line; format: cell-based; conditions: Homo sapiens, DMS-114, 48 h
Experimental: as §1

[7] = tested on: H358 NSCLC; test: MTS cell viability assay, H358 lung cancer cell line; format: cell-based; conditions: Homo sapiens, NCI-H358, 48 h
Experimental: as §1

[8] = tested on: H69 small cell lung cancer; test: MTS cell viability assay, H69 lung cancer cell line; format: cell-based; conditions: 48 h
Experimental: as §1

[9] = tested on: H2461 NSCLC; test: MTS cell viability assay, H2461 lung cancer cell line; format: cell-based; conditions: 48 h
Experimental: as §1

[10] = tested on: H2596 NSCLC; test: MTS cell viability assay, H2596 lung cancer cell line; format: cell-based; conditions: 48 h
Experimental: as §1

melting point: > 300 °C (dec.)
Structure (SMILES): Cc1nc2nc(Nc3ccccc3)cnc2cc1N [Compound 7, 6-Methyl-N^3-phenylpyrido[2,3-b]pyrazine-3,7-diamine]
Viability (% CTL) at 10 μM DU145 prostate [1]: 76 % CTL | Viability (% CTL) at 10 μM A2058 melanoma [2]: 98 % CTL

melting point: 265 °C
Structure (SMILES): Cc1nc2nc(Nc3ccccc3)cnc2cc1NC(=O)c1ccc(N)cc1 [Compound 13, 4-Amino-N-(6-methyl-3-(phenylamino)pyrido[2,3-b]pyrazin-7-yl)benzamide]
Viability (% CTL) at 10 μM DU145 prostate [1]: 77 % CTL | Viability (% CTL) at 10 μM A2058 melanoma [2]: 84 % CTL

IC50 [1]: 1720 nM | IC50 [3]: 1090 nM | IC50 [4]: 1260 nM | IC50 [5]: 1540 nM | IC50 [6]: 3150 nM | IC50 [7]: 1970 nM | IC50 [2]: 1290 nM | IC50 [8]: 980 nM | IC50 [9]: 1710 nM | IC50 [10]: 1070 nM
Structure (SMILES): Cc1nc2nc(Nc3ccccc3)cnc2cc1NC(=O)Nc1cccc(C(F)(F)F)c1 [Compound 16, 1-(6-Methyl-3-(phenylamino)pyrido[2,3-b]pyrazin-7-yl)-3-(3-(trifluoromethyl)phenyl)urea]
Viability % CTL DU145 prostate [1]: 10 % CTL | Viability % CTL A2058 melanoma [2]: 4 % CTL

IC50 [1]: 1040 nM | IC50 [3]: 320 nM | IC50 [4]: 690 nM | IC50 [5]: 920 nM | IC50 [6]: 720 nM | IC50 [7]: 1180 nM | IC50 [2]: 1130 nM | IC50 [8]: 510 nM | IC50 [9]: 800 nM | IC50 [10]: 620 nM
Structure (SMILES): Cc1nc2nc(Nc3ccccc3)cnc2cc1NC(=O)Nc1ccc(F)c(Cl)c1 [Compound 17, 1-(3-Chloro-4-fluorophenyl)-3-(6-methyl-3-(phenylamino)pyrido[2,3-b]pyrazin-7-yl)urea]
Viability % CTL DU145 prostate [1]: 0 % CTL | Viability % CTL A2058 melanoma [2]: 2 % CTL

Structure (SMILES): COc1cc(Nc2cnc3cc(NC(=O)Nc4cccc(C(F)(F)F)c4)c(C)nc3n2)cc(OC)c1OC [Compound 34, 1-(6-Methyl-3-((3,4,5-trimethoxyphenyl)amino)pyrido[2,3-b]pyrazin-7-yl)-3-(3-(trifluoromethyl)phenyl)urea]
Viability % CTL DU145 prostate (10 μM ) [1]: 81 % CTL | Viability % CTL A2058 melanoma (10 μM) [2]: 116 % CTL

Structure (SMILES): Cc1nc2nc(Nc3ccc(C(=O)O)cc3)cnc2cc1NC(=O)Nc1ccc(F)c(Cl)c1 [Compound 35, 4-((7-(3-(3-Chloro-4-fluorophenyl)ureido)-6-methylpyrido[2,3-b]pyrazin-3-yl)amino)benzoic acid]
Viability % CTL DU145 prostate (10 μM ) [1]: 82 % CTL | Viability % CTL A2058 melanoma (10 μM) [2]: 98 % CTL

Structure (SMILES): Cc1nc2nc(Nc3ccc(C(=O)O)cc3)cnc2cc1NC(=O)Nc1cccc(C(F)(F)F)c1 [Compound 36, 4-((6-Methyl-7-(3-(3-(trifluoromethyl)phenyl)ureido)pyrido[2,3-b]pyrazin-3-yl)amino)benzoic acid]
Viability % CTL DU145 prostate (10 μM ) [1]: 77 % CTL | Viability % CTL A2058 melanoma (10 μM) [2]: 113 % CTL

Structure (SMILES): Cc1nc2nc(Oc3ccccc3)cnc2cc1[N+](=O)[O-] [Compound 55C]
Viability % CTL DU145 prostate [1]: 95 % CTL | Viability % CTL A2058 melanoma [2]: 91 % CTL

Structure (SMILES): Cc1nc2nc(Oc3ccccc3)cnc2cc1N [Compound 56D]
Viability % CTL DU145 prostate [1]: 108 % CTL | Viability % CTL A2058 melanoma [2]: 81 % CTL

Structure (SMILES): Cc1nc2nc(Oc3ccccc3)cnc2cc1NC(=O)Nc1ccccc1 [Compound 57C]
Viability % CTL DU145 prostate [1]: 126 % CTL | Viability % CTL A2058 melanoma [2]: 94 % CTL
